Source: PubChem BioAssay (NCI)
Where “and” joins values, the source holds several entries; their conditions need not be identical. Equal values may be shown once.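 The compound was tested at five concentrations on cells cultured in 96-well plates, with a 48-hour exposure period. The concentration for 50% growth inhibition is given as GI50. TGI is the concentration that stops growth completely.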 *1 amine or outer side, *2 acyl side, *3 side chain or, on linkers, in order; H or OH if unused. Where a SMILES comes first, the peptide text is derived from it. Bridges are numbered along the chain shown (N, C = ends). Roman numbers before positions name the chains, in order. [ ]: non-standard residue; d: D form. Actinocin(9to1) = Cc1c2oc3c(C)ccc(C(=O)[*:1])c3nc-2c(C(=O)[*:2])c(N)c1=O; NMeF = CN[CH](Cc1ccccc1)C(=O)O; Sar = CNCC(=O)O

Tests used:
Experiment in all cases: NCI tumour cell line growth inhibition, 48 h
[1] = test system: SN12C renal
[2] = test system: MOLT-4 leukemia
[3] = test system: NCI-H23 lung
[4] = test system: A498 renal
[5] = test system: MALME-3M melanoma
[6] = test system: SNB-19 CNS
[7] = test system: KM12 colon
[8] = test system: PC-3 prostate
[9] = test system: LOX IMVI melanoma
[10] = test system: RPMI-8226 leukemia

SMILES | TGI [1] | TGI [2] | TGI [3] | TGI [4] | TGI [5] | TGI [6] | TGI [7] | GI50 [1] | GI50 [8] | TGI [8] | GI50 [2] | GI50 [3] | GI50 [9] | TGI [9] | GI50 [4] | GI50 [10] | TGI [10] | GI50 [6] | GI50 [7] | GI50 [5]
Cn1c(=O)c2/c(n(C)c1=O)=N\C=c1\c(=O)n(C)c(=O)n(C)\c1=N\C=2 | > 100 µM | > 100 µM | > 100 µM | > 100 µM | > 100 µM | > 100 µM | > 100 µM | – | – | – | – | – | – | – | – | – | – | – | – | –
CS(=O)(=O)N(c1cc(-c2ccc3ncnc(Nc4cccc(Cl)c4)c3c2)cnc1Cl)S(C)(=O)=O | 17 µM | 1.31 µM | 3.72 µM | 0.388 µM | – | 7.89 µM | 4.72 µM | 0.386 µM | 0.539 µM | 3.63 µM | 0.334 µM | 0.417 µM | 0.427 µM | 2.26 µM | 0.0685 µM | 0.522 µM | 3.62 µM | 0.936 µM | 1.21 µM | –
Brc1cc2c(cc1Br)CN(c1ccccc1)C2 | > 100 µM | > 100 µM | > 100 µM | > 100 µM | > 100 µM | > 100 µM | > 100 µM | – | – | – | – | – | – | > 100 µM | – | – | > 100 µM | – | – | –
O=C(/C=C\c1ccccc1)N1CCc2ccccc2C1 | – | – | 51.9 µM | > 100 µM | – | > 100 µM | > 100 µM | – | – | > 100 µM | – | – | – | > 100 µM | – | – | 52.4 µM | – | – | –
C[C@]12CCC(=O)C=C1CC[C@@H]1C2CC[C@]2(C)c3nn(-c4ccccc4)nc3CC12 (stereo not given in full) | > 100 µM | > 100 µM | > 100 µM | > 100 µM | > 100 µM | > 100 µM | > 100 µM | – | – | – | – | – | – | > 100 µM | – | – | > 100 µM | – | – | –
COc1cccc2c1n([O-])c1cccc(OC)c1[n+]2=O | > 100 µM | > 100 µM | 28 µM | > 100 µM | 25.7 µM | – | 29.6 µM | 6.85 µM | 7.76 µM | 35.3 µM | 4.97 µM | 4.82 µM | 5.19 µM | 27.2 µM | 16.4 µM | 4.67 µM | 25 µM | – | 10.6 µM | 8.05 µM
CN(C)CC/C(=N\Nc1ccc(Cl)cc1Cl)c1ccccc1 | 25.1 µM | 42 µM | 31.6 µM | 30.1 µM | 49.7 µM | 30 µM | 31.2 µM | – | – | – | – | – | – | 28 µM | – | – | 17.1 µM | – | – | –
NNC(=O)C(=O)N/N=C(\CCC(=O)Nc1ccc(Cl)cc1)Cc1nc2ccccc2s1 | > 100 µM | > 100 µM | > 100 µM | > 100 µM | > 100 µM | > 100 µM | > 100 µM | – | – | – | – | – | – | 67.5 µM | – | – | > 100 µM | – | – | –
Cc1cccc2c(O)cc(=O)oc12 | > 100 µM | > 100 µM | > 100 µM | > 100 µM | > 100 µM | > 100 µM | > 100 µM | – | – | – | – | – | – | > 100 µM | – | – | > 100 µM | – | – | –
O=S1Nc2c(Cl)cc(Cl)c(Cl)c2S1 (stereo not given) | > 100 µM | > 100 µM | > 100 µM | > 100 µM | > 100 µM | > 100 µM | > 100 µM | – | – | – | – | – | – | > 100 µM | – | – | > 100 µM | – | – | –
O=C1C(Cl)=C(Nc2cccc(C(F)(F)F)c2)C(=O)N1Cc1ccc(Cl)cc1 | 10.7 µM | > 100 µM | 8.01 µM | 15.7 µM | 0.741 µM | 24.1 µM | 19.6 µM | 0.545 µM | 0.298 µM | 16.8 µM | 0.119 µM | 0.162 µM | 0.241 µM | 5.15 µM | 0.73 µM | – | – | 6.37 µM | 2.35 µM | < 0.0488 µM
O=NN(CCCl)C(=O)NC1CCC(CC2CCC(NC(=O)N(CCCl)N=O)CC2)CC1 (stereo not given) | > 73.5 µM | 47.8 µM | 99.6 µM | 93.9 µM | > 70.4 µM | 49.1 µM | > 100 µM | – | – | – | – | – | – | 26.4 µM | – | – | > 77.8 µM | – | – | –
OCCN1CCN(CC/C=C2/c3ccccc3Sc3ccc(Cl)cc32)CC1 | 26 µM | 26.8 µM | 29.2 µM | 28.1 µM | 13.1 µM | 34.9 µM | 23.2 µM | – | – | – | – | – | – | 21.8 µM | – | – | 31.2 µM | – | – | –
CCCCCCCCCCC(C)CCCCCCC(=O)O (stereo not given) | > 100 µM | > 100 µM | > 100 µM | > 100 µM | > 100 µM | > 100 µM | > 100 µM | – | – | – | – | – | – | > 100 µM | – | – | > 100 µM | – | – | –
Cc1coc2c1C(OC(=O)C(C)C)C1(C)C(C)CCC(O)C1C2=O (stereo not given) | > 100 µM | > 100 µM | > 100 µM | > 100 µM | > 100 µM | – | > 100 µM | – | – | > 100 µM | – | – | – | > 100 µM | – | – | > 100 µM | – | – | –
CC(=O)N/C(=C\c1ccc(Cc2nc3c([nH]2)C(=O)c2ccccc2C3=O)cc1)c1nc2c([nH]1)C(=O)c1ccccc1C2=O | > 100 µM | > 100 µM | > 100 µM | > 100 µM | > 100 µM | > 100 µM | > 100 µM | – | – | – | – | – | – | > 100 µM | – | – | > 100 µM | – | – | –
COC(=O)C(C)NC(=O)c1ccccc1I(OS(=O)(=O)C(F)(F)F)c1ccccc1 (stereo not given) | 32.4 µM | > 85.1 µM | > 53.3 µM | – | 29.5 µM | > 65.4 µM | 38.7 µM | 15.4 µM | 22 µM | 53.1 µM | 42.3 µM | 18.5 µM | 22.5 µM | > 60.6 µM | – | 3 µM | 25.8 µM | 26.3 µM | 17.7 µM | 14 µM
Cc1c([N+](=O)[O-])oc2ccc3ccccc3c12 | > 100 µM | > 100 µM | > 100 µM | > 100 µM | – | > 100 µM | > 100 µM | – | – | > 100 µM | – | – | – | > 100 µM | – | – | > 100 µM | – | – | –
Cc1c2oc3c(C)ccc(C(=O)NC4C(=O)NC(C(C)C)C(=O)N5CCCC5C(=O)N(C)CC(=O)N(C)C(Cc5ccccc5)C(=O)OC4C)c3nc-2c(C(=O)NC2C(=O)NC(C(C)C)C(=O)N3CCCC3C(=O)N(C)CC(=O)N(C)C(Cc3ccccc3)C(=O)OC2C)c(N)c1=O (stereo not given) (I: TVP[Sar][NMeF] / II: TVP[Sar][NMeF]; ester I:1-I:C, II:1-II:C; linker I:N-II:N via Actinocin(9to1); configuration not given here) | – | 0.00414 µM | < 0.01 µM and 0.0376 µM | < 0.01 µM and 0.0378 µM | < 0.01 µM and 0.0493 µM | 0.118 µM and > 0.381 µM | – | < 0.01 µM and 0.00213 µM | – | 0.0325 µM and 0.142 µM | 0.000346 µM | – | < 0.01 µM and 0.00103 µM | < 0.01 µM | – | – | > 1 µM | < 0.01 µM and 0.00378 µM | – | –
CCN(CC)CC(=N)N(CC)c1ccccc1 | > 100 µM | > 100 µM | > 100 µM | > 100 µM | > 100 µM | > 100 µM | > 100 µM | – | – | – | – | – | – | > 100 µM | – | – | > 100 µM | – | – | –
